Read-outs that look alike come from different tables or passages of the source.
How the values were obtained:
hCA XII = molecular target: T1, hCA XII (Homo sapiens, UniProt O43570); experiment: CA inhibition, stopped-flow CO2 hydration assay; type: biochemical; conditions: stopped-flow technique; mean from three assays
T1 construct: made in house
Protocol: (§1) The CO2 hydration activity of the four hCA isoforms was monitored using an Applied Photophysics stopped-flow instrument. Phenol red (at a concentration of 0.2 mM) was used as an indicator, working at the absorbance maximum of 557 nm, with 10 mM HEPES (pH 7.4) as a buffer, and 20 mM NaClO4 (for maintaining constant the ionic strength), following the initial rates of the CA-catalyzed CO2 hydration reaction for a period of 10–100 s. To determine the kinetic parameters by Lineweaver-Burk plots and the inhibition constants, a concentration of CO2 between 1.7 to 17 mM was used. At least six measurements of the original 5–10% reaction were used to assess the initial velocity for each inhibitor. The uncatalyzed rates were determined and detracted from the total observed rates. Stock inhibitor solutions (10–100 mM) were prepared in distilled-deionized water, and dilutions up to 0.1 nM were done with the buffer test. […] The inhibition constants were obtained by non-linear least-squares methods using PRISM 6 and the Cheng-Prusoff equation, as reported earlier, and represent the mean from at least three different determinations.

hCA II = molecular target: T2, hCA II (Homo sapiens, UniProt P00918); experiment: CA inhibition, stopped-flow CO2 hydration assay; type: biochemical; conditions: stopped-flow technique; mean from three assays
T2 construct: made in house
Protocol: as §1

hCA IX = molecular target: T3, hCA IX (Homo sapiens, UniProt Q16790); experiment: CA inhibition, stopped-flow CO2 hydration assay; type: biochemical; conditions: stopped-flow technique; mean from three assays
T3 construct: made in house
Protocol: as §1

hCA I = molecular target: T4, hCA I (Homo sapiens, UniProt P00915); experiment: CA inhibition, stopped-flow CO2 hydration assay; type: biochemical; conditions: stopped-flow technique; mean from three assays
T4 construct: made in house
T4 sequence (P00915 whole entry): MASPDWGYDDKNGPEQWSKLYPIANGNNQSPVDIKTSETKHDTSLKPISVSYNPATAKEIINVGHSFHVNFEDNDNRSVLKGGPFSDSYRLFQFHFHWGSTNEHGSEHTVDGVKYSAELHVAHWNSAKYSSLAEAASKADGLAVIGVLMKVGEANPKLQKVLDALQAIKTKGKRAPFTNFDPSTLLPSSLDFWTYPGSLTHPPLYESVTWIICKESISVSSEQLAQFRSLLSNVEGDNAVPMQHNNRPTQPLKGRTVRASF
Protocol: as §1

MCF7 cells = experiment: Antiproliferative activity, MTT test; type: cell-based; conditions: Homo sapiens, MTT assay after 72 h exposure
Protocol: A series of synthesized indoline-5-sulfonamides was tested on the MCF7 cancer cell line under normoxia and hypoxia using the MTT test.
The MDR subline K562/4 [77] (kind gift of Dr. Alexander Shtil, Blokhin N.N. National Medical Research Center of Oncology) was obtained by stepwise selection of K562 cells for survival under continuous exposure to Dox. This subline expresses the MDR1 gene and functional P-gp and is characterized by a high resistance index for Dox. […] Cells in the logarithmic phase of growth were used in the experiments. The growth inhibitory activity of compounds was assessed by the MTT test based on the metabolism of the MTT reagent (3-[4,5-dimethylthiazol-2-yl]-2,5-diphenyltetrazolium bromide) (Applichem) in living cells, with modifications as described previously in [49]. Compounds at different concentrations in 100 μL of the appropriate medium were added, and the cells were grown for 72 h. The hypoxia (1% O2) conditions were simulated in Binder multigas incubator, as described in [49]. After incubation with compounds, the medium was removed, the MTT reagent that was dissolved in the medium was added to the final concentration of 0.2 mg/mL to each well, and the incubation was performed for 2 h. Then the cell supernatants were removed, and purple formazan crystals were dissolved in 100% DMSO (350 μL per well). Culture plates were gently shaken, and the absorbance was measured at 571 nm with a reference wavelength of 630 nm on a MultiScan reader (ThermoFisher, Waltham, MA, USA). The viability of the cells was expressed as a percentage of the control. Dose-response curves were analyzed by regression analysis using sigmoid curves (Log(concentration) vs. normalized absorbance).
All results were reported as means ± SD. One-way analysis of variance was used for the analysis of data. Differences were defined as significant at p < 0.05. GraphPad Prism7 (GraphPad Software, San Diego, CA, USA) was used for the determination of the half-maximal inhibitory concentration (IC50) values.

A431 skin cancer cells = experiment: Antiproliferative activity, MTT test; type: cell-based, human; conditions: 72 h, normoxia
Excerpt: To evaluate the influence of CA inhibition on the antiproliferative activity, we selected five compounds 4b, f, m, n and 10 with different inhibition profiles against CA IX for in-depth testing on cancer cells with increased CA IX expression. The database www.proteinatlas.org (accessed on 13 October 2022) contains data on gene expression in various cell lines. According to the data obtained from this database, A431 cells express CA IX at a very high level, which distinguishes them from human cell lines belonging to other tissues [https://www.proteinatlas.org/ENSG00000107159-CA9/cell+line (accessed on 13 October 2022)]. A431 cells are skin cancer cells, and their growth has already been intensely analyzed in hypoxia. […] Moreover, Ren and colleagues described that hypoxia modulates cellular pathways in A431 cells, which are associated with radioresistance and enhanced migration. Given the observations described above, we were expecting to reveal the high antiproliferative activity of the selected compounds against skin cancer cells. […] In hypoxia, the activity of tested compounds was increased, but the 50% inhibition of growth was never achieved.
(§2) The MCF7 human breast, A431 human skin cancer cells and K562 (ATCC CCL-243) chronic myelogenous leukemia cells were obtained from the ATCC collection. The MDR subline K562/4 [77] […] The growth inhibitory activity of compounds was assessed by the MTT test based on the metabolism of the MTT reagent (3-[4,5-dimethylthiazol-2-yl]-2,5-diphenyltetrazolium bromide) (Applichem) in living cells, with modifications as described previously in [49]. […] Culture plates were gently shaken, and the absorbance was measured at 571 nm with a reference wavelength of 630 nm on a MultiScan reader (ThermoFisher, Waltham, MA, USA). The viability of the cells was expressed as a percentage of the control. Dose-response curves were analyzed by regression analysis using sigmoid curves (Log(concentration) vs. normalized absorbance).

K562 cells = experiment: Antiproliferative activity, MTT test; type: cell-based, human
Excerpt: Next, we examined the activity of the whole series of indoline-5-sulfonamides against leukemia cell line K562.
as §2, with “[77] (kind gift of Dr. Alexander Shtil, Blokhin N.N. National Medical Research Center of Oncology) was obtained by stepwise selection of K562 cells for survival under continuous exposure to Dox. This subline expresses the MDR1 gene and functional P-gp and is characterized by a high resistance index for Dox.” for “[77]”

K562/4 cells = experiment: Reversal of chemoresistance to Dox, MTT test; type: cell-based, human
Excerpt: Earlier, Kopecka and colleagues have shown that CA XII can interact with P-gp and influence its activity. Subsequently, silencing or inhibition of CA XII by chemical agents may restore the sensitivity to Dox of resistant K562 and other tumor cells. Given the potent inhibition of 4f against CA XII and the activity of 4e against K562, we examined their ability to reverse the chemoresistance of K562/4 with P-gp to Dox.
The MCF7 human breast, A431 human skin cancer cells and K562 (ATCC CCL-243) chronic myelogenous leukemia cells were obtained from the ATCC collection. The MDR subline K562/4 [77] (kind gift of Dr. Alexander Shtil, Blokhin N.N. National Medical Research Center of Oncology) was obtained by stepwise selection of K562 cells for survival under continuous exposure to Dox. This subline expresses the MDR1 gene and functional P-gp and is characterized by a high resistance index for Dox. The MCF7 and A431 cells were cultured in standard 4.5 g/L glucose DMEM medium (Gibco) supplemented with 10% FCS (HyClone), 2 mM L-glutamine, 50 U/mL penicillin, 50 µg/mL streptomycin (PanEco), 100 µg/mL sodium pyruvate (Santa Cruz) at 37 °C, 5% CO2 and 80–85% humidity in NuAire incubator. Suspension myelogenous leukemia cells (K562, K562/4) were propagated in RPMI-1640 (PanEco) with 5% FCS (HyClone), 2 mM L-glutamine, 100 U/mL penicillin, and 100 µg/mL streptomycin at 37 °C, 5% CO2, and 80–85% humidity in Binder incubator. Cells in the logarithmic phase of growth were used in the experiments. The growth inhibitory activity of compounds was assessed by the MTT test based on the metabolism of the MTT reagent (3-[4,5-dimethylthiazol-2-yl]-2,5-diphenyltetrazolium bromide) (Applichem) in living cells, with modifications as described previously in [49]. Compounds at different concentrations in 100 μL of the appropriate medium were added, and the cells were grown for 72 h. The hypoxia (1% O2) conditions were simulated in Binder multigas incubator, as described in [49]. After incubation with compounds, the medium was removed, the MTT reagent that was dissolved in the medium was added to the final concentration of 0.2 mg/mL to each well, and the incubation was performed for 2 h. Then the cell supernatants were removed, and purple formazan crystals were dissolved in 100% DMSO (350 μL per well). Culture plates were gently shaken, and the absorbance was measured at 571 nm with a reference wavelength of 630 nm on a MultiScan reader (ThermoFisher, Waltham, MA, USA). The viability of the cells was expressed as a percentage of the control. Dose-response curves were analyzed by regression analysis using sigmoid curves (Log(concentration) vs. normalized absorbance).
Figure 6 Susceptibility of resistant K562/4 line to combinations of Dox (25 µM) with indoline-5-sulfonamides 4e and 4f. […]

[1] = hypoxia (1% O2), read-out: IC50 against MCF7 Cells, Hypoxia
[2] = normoxia, read-out: IC50 against MCF7 Cells, Normoxia

T1 sequence (O43570 25-354): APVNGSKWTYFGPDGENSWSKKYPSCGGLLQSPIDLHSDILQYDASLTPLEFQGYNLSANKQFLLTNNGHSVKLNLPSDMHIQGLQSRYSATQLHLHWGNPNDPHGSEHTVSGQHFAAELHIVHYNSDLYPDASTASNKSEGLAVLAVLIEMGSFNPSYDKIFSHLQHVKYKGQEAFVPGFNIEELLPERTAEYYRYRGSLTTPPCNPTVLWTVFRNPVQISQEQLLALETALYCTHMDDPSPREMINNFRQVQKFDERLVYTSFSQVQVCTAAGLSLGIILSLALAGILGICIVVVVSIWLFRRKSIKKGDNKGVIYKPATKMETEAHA

SMILES | Ki (hCA XII) [nM] | Ki (hCA II) [nM] | Ki (hCA IX) [µM] | Ki (hCA I) [nM] | IC50 (MCF7 cells; [1]) [µM] | IC50 (MCF7 cells; [2]) [µM] | inhibition of growth of A431 cells, normoxia (A431 skin cancer cells) | melting point [°C] | concentration inhibiting growth of K562 cells (K562 cells) [µM] | effect of combination with Dox on viable K562/4 cells (K562/4 cells; combination with Dox (25 µM)) | cytotoxic activity against MDR subline K562/4 as monoagent (K562/4 cells; monoagent)
NS(=O)(=O)c1ccc2c(c1)CCN2C(=O)c1cccc(F)c1 [Compound 4b, 1-(3-Fluorobenzoyl)indoline-5-sulfonamide] | > 10000 | 5.6 | > 10 | 65.9 | > 50 | > 50 | least active | > 250 | – | – | –
COc1cc(C(=O)N2CCc3cc(S(N)(=O)=O)ccc32)cc(OC)c1OC [Compound 4m, 1-(3,4,5-Trimethoxybenzoyl)indoline-5-sulfonamide] | 103 | 3 | > 10 | 49 | 36.7 ± 3.2 | 29.6 ± 2.2 | least active | 248 to 250 | – | – | –
NS(=O)(=O)c1ccc2c(c1)CCN2C(=O)c1c(F)c(F)c(F)c(F)c1F [Compound 4e, 1-(Perfluorobenzoyl)indoline-5-sulfonamide] | 127 | 3.4 | 1.3 | 52.2 | 20.2 ± 2 | 29.9 ± 2.7 | – | 187 to 189 | 10 | decline of viable K562/4 cells | low cytotoxic activity
